Data published in US6784155B1, “Inhibitor and stimulator of stem cell proliferation and uses thereof” (Wellstat Therapeutics Corporation, priority 1996, dated 2004).
No end group written: not given here.

Legend:
[1] = tested on: CFU-MIX; test: CFU-MIX cycling assay after in vivo injection into testosterone or 5FU treated mice; design: species or system mouse
Protocol: In order to test the ability of purified porcine hemoglobin chains to act in vivo, BDF1 mice were injected with testosterone propionate as described in Example 1. Twenty four hours later, mice received 500 ng of either pINPROL, porcine hemoglobin alpha chain (purified from peripheral red blood cells as in FIG. 21), porcine beta chain (purified from peripheral red blood cells as in FIG. 21) or the equivalent volume of carrier intravenously. Forty eight hours later the bone marrow from each mouse was harvested and the CFU-MIX assay conducted as described in Example 14.
To assess the stem cell inhibitory activity of peptide 43-55 in vivo, B6D2 F1 mice were pre-treated with testosterone propionate as described in Example 1 or with 5FU. Specifically, testosterone propionate (100 mg/kg body weight) was injected i.p. on Day 0 into mice. Alternatively, mice were injected on Day 0 with 5FU ([…] body weight).
24 hours later (Day 1), varying doses of peptide 43-55 or vehicle were injected i.v. Bone marrow was harvested on Day 2 and the […] cycling assay conducted as in Example 14. Specifically, mice were sacrificed and single cell bone marrow suspensions prepared from the femurs. The cells were washed once and the concentration adjusted to 5×10^6 cells/ml in Fischer medium. For each test condition, one milliliter of cells was added to each of two polypropylene tubes. The tubes were incubated at 37° C. for 3 hours without (“Control”) or with (“Experimental”) the appropriate concentration of test substance. At the end of the incubation, 30 μg/ml of cytosine arabinoside (“Ara C” (Sigma)) was added to half of the tubes and the same volume of Fischer's medium was added to the others. The tubes were incubated for a further 1 hour at 37° C., after which they were placed on ice and washed twice with cold Fischer medium.
The cells were readjusted to 5×10^4-10^6/ml in Fischer's medium and 0.5 ml of cell suspension added to 5 ml of Methocult M3430 methylcellulose medium (Stem Cell Technologies, Vancouver, British Columbia). The mixture was vigorously mixed with a vortex and 1 ml was dispensed into each of five 35 mm dishes. The 35 mm dishes were in turn placed in a covered 150 mm dish with one open 35 mm dish containing sterile water. CFU-MIX colonies were counted with the use of an inverted microscope after 7 days of incubation at 37° C.
Differences in colony number between the tubes treated with medium versus the tubes treated with Ara C represent the percentage of cells in cycle under that condition according to the formula: […]

[2] = tested on: CFU-GEMM; test: CFU-GEMM cycling assay, human umbilical cord blood cells; format: cell-based
Protocol: In order to investigate the ability of purified INPROL from porcine bone marrow to affect cycling on human progenitors, umbilical cord blood cells were obtained. Either the total mononuclear cell fraction obtained after separation on Ficoll or the CD34^+ fraction obtained after fractionation on anti-CD34 affinity columns (CellPro Inc.) was used. Cells were incubated for 48 hours in vitro in the presence of interleukin 3 (IL-3) and stem cell factor (SCF) (100 ng/ml each) in order to ensure that the early stem cells were in cycle. After this preincubation, cycling assays were conducted as described in Example 14 for the mouse except that CFU-GEMM (instead of CFU-MIX) were counted on Day 18 after plating.
The human cord blood CFU-GEMM cycling assay was conducted as in Example 19. Specifically, mononuclear cells were isolated from human umbilical cord blood cells and adjusted to 24×10^4 cells/ml in IMDM tissue culture medium supplemented with 10% FBS, 100 ng/ml kit ligand and 100 ng/ml human IL-3. The cells were incubated for 48 hours at 37° C.
After incubation, cells were washed and resuspended in serun-free NDM at a concentration of 10^6 cells/ml. One ml of cells was added to each of two polypropylene tubes per condition and the cycling assay conducted as in Example 24 for mouse bone marrow. After the Ara C incubation cells were washed with cold NDM and adjusted to 10,000 to 20,000 cells per 0.5 ml IMDM and mixed with 5 ml Methocult H4433 (Stem Cell Technologies). Alternatively, Methocult H4435 methylcellulose medium (Stem Cell Technologies) was used in which case the cell concentration was adjusted to 2500-5000 cells per 0.5 ml IMDM. The cells were plated as in Example 24 and CFU-GEMM colonies scored on days 14-18.

[3] = tested on: CFU-GEMM; test: CFU-GEMM cycling assay, human bone marrow cells; format: cell-based
Protocol: To assess the bioactivity of recombinant p1-97, the CFU-GEMM cycling assay was used as in Example 18:
CD34^+ stem cells were obtained from Poietic Technologies (Gaithersburg, MD) after purification from human bone marrow by means of a CelUPro column. Cells were incubated for 48 hours with kit ligand and IL-3 and used in a CFU-GEMM cycling assay in Example 26.

[4] = tested on: CFU-GEMM; test: CFU-GEMM cycling assay, mobilized human peripheral blood; format: cell-based
Protocol: Peripheral blood was obtained from breast cancer patients undergoing peripheral stem cell mobilization with cyclophosphamide and G-CSF according to standard protocols. Red blood cells were removed with FicolU Hypaque (cells were diluted 1:1 with IMDM and 20 ml layered on top of 16 ml Ficoll and centrifuged at 800 g for 30 minutes; mononuclear cells were removed from the interphase and washed twice in IMDM). In one case mononuclear cells were stored frozen in liquid nitrogen before assay. The mononuclear cells were plated for the CFU-GEMM cycling assay as in Example 26 except that 2.5-5×10^5 cells were plated per dish.

[5] = tested on: CFU-MIX; test: Stimulation of cycling of quiescent murine stem cells, CFU-MIX cycling assay in vitro; format: cell-based, mouse
Protocol: Microgram per milliliter doses of hemoglobin chains, myoglobin and peptides were assayed for stimulation of quiescent stem cells. Bone marrow was obtained from untreated B6D2F1 tested in the CFU-MIX cycling assay as in Example 24. Stem cells isolated from untreated B6D2F1 mice are normally slowly cycling unless stimulated (e.g. by testosterone propionate (cf. Example 1) or chemotherapy such as 5FU (cf. Example 4)) to enter into cycle.

[6] = Table 32, cord blood mononuclear cells, 100 ng/ml
[7] = Table 33, CD34+ stem cells from human bone marrow, concentration printed only as (ng/ml)

Substance: FPHFDLSHGSAQV [Peptide 43-55, amino acids 43-55 of human alpha hemoglobin]
- % Kill ([1]; Table 22, testosterone-pretreated animals, 0.5 ng i.v. per 20 gram mouse): 0%
- % Kill ([1]; Table 23, 5FU-pretreated animals, 0.5 ng i.v. per 20 gram mouse): 3%
- % Kill ([2]; Table 32, cord blood mononuclear cells, 1 ng/ml): 20%
- % Kill ([2]; Table 32, cord blood mononuclear cells, 10 ng): 12%
- % Kill [2, 6]: 5%
- % Kill [3, 7]: 0%
- % Kill ([4]; Table 35, Patient #2, 10 ng/ml): 0%
- % Kill ([4]; Table 36, Patient #3, cells stored frozen before assay, 0.1 ng/ml): 23%
- % Kill ([4]; Table 36, Patient #3, cells stored frozen before assay, 1.0 ng/ml): 0%
- % Kill ([4]; Table 36, Patient #3, cells stored frozen before assay, 10 ng/ml): 15%
- % Kill ([5]; Table 40, untreated B6D2F1 bone marrow, 10 μg/ml): 26%

Substance: Human alpha chain: purified, non-recombinant human alpha hemoglobin chain isolated by reversed-phase HPLC
- % Kill ([1]; Table 14, testosterone-treated BDF1 mice, 500 ng/mouse): −22%
- % Kill ([1]; Table 22, testosterone-pretreated animals, 500 ng i.v. per 20 gram mouse): 13%
- % Kill ([1]; Table 23, 5FU-pretreated animals, 500 ng i.v. per 20 gram mouse): 0%
- % Kill ([2]; Table 16, cord blood mononuclear cells, 100 ng/ml): −23%
- % Kill [2, 6]: 0%
- % Kill ([3]; Table 21, human bone marrow mononuclear cells, 100 ng/ml): 11%
- % Kill [3, 7]: 0%
- % Kill ([4]; Table 34, Patient #1, 100 ng/ml): 0%
- % Kill ([4]; Table 35, Patient #2, concentration printed only as (ng/ml)): 2%
- % Kill ([5]; Table 37, untreated B6D2F1 bone marrow, 1 μg/ml): 0%
- % Kill ([5]; Table 37, untreated B6D2F1 bone marrow, 10 μg/ml): 24%
- % Kill ([5]; Table 37, untreated B6D2F1 bone marrow, 100 μg/ml): 40%
- % Kill ([5]; Table 39, untreated B6D2F1 bone marrow, 100 μg/ml): 41%
- % Kill ([5]; Table 40, untreated B6D2F1 bone marrow, 100 μg/ml): 30%
